Test results published in patent US20200384134A1, “IMAGING METHOD OF AMPA RECEPTORS IN BRAIN OF PRIMATE ORGANISM, PROGRAM, DIAGNOSTIC AGENT, COMPANION DIAGNOSTIC AGENT, DRUG, SCREENING METHOD, INPUT TERMINAL, SERVER AND SYSTEM” (Public University Corporation Yokohama City University, priority 2017, published 2020).

What was measured:
[1] = system: AMPA receptors in the brain; assay: PET imaging in humans (healthy persons); assay type: in vivo, human; settings: about 370 MBq i.v.
Experimental: PET imaging was performed on two human subjects. […] Absorption correction CT imaging was performed for about one minute, and then [^11C] K-2 of about 370 MBq was administered, as a PET drug, intravenously over one minute. Thereafter, imaging was performed for 120 minutes. For the imaging, a PET/CT device “Aquiduo” (Toshiba Medical Systems Corporation) was used. In list data which was collected, dynamic images were reconstructed by an OS-EM method.
(§1) The reconstructed image was analyzed with the PMOD image analysis software (PMOD technologies) by integrating VOIs including a plurality of regions of frontal lobe, dentate cortex, hippocampus, amygdala, putamen, cerebellum, bridge and the like with one formed on a template MRI image. […]
as §1, with “image. As a calculation value used in quantitative determination, % SUV (% of standardized uptake value) was used.” for “image.”

[2] = system: WKY rat which was the depression model rat; assay: Forced swimming test using rat; assay type: in vivo; settings: FIG. 10
Experimental: In a forced swimming test, AMPA receptor-binding compounds K-2 and K-4 were dissolved in 100% DMSO (Nacalai Tesque, Inc. Japan) so as to have a concentration of 2.1 mM, were diluted with saline immediately before being administered (15% DMSO, 320 μM) and were intravenously administered to the rat with an administered amount of 5 μl/weight (g) such that the administered amount fell within a range of 1 mg/kg to 1.5 mg/kg.
In all animal experiments, the deliberation and the approval of the animal experiment committee in Yokohama City University were received (approval number: F-A-15-051). As rats, adult male Wistar rats which were 6 to 10 weeks old and Wistar Kyoto rats (WKY rats) which were depression model rats (Charles River, Japan) were used. In order to acquire a route for the repeated administration of K-2, a jugular vein cannula indwelling surgery was performed a week before the experiment. The rat was made to fall sleep with isoflurane (DS Pharma Animal Health, Japan), and thereafter, while anesthesia was maintained at an isoflurane concentration of 1.5% (air 2 L/minute), the jugular vein cannula indwelling surgery was performed. The skin of a neck was incised about 3 cm such that subcutaneous fat was opened, and thus a jugular vein was exposed. […]

AMPA receptors = assay: AMPA receptor binding test (electrophysiological verification) in vitro; assay type: cell-based; settings: FIG. 5

Compound | nonspecific accumulation caused by PET drug not bound to the AMPA receptors in the brain ([1]; between 30 and 60 minutes after administration, two human subjects) | uptake into the brain ([1]; healthy men, average 50 to 120 minutes, FIG. 12) | immobile time, K-4 compared with K-2 ([2]; chronic administration, 1 mg/kg) | immobile time, chronic administration experiment ([2]; i.v. for 7 days, 1 mg/kg to 1.5 mg/kg, compared with 15% DMSO) | binding affinity to the AMPA receptors (AMPA receptors)
[11CH3]N(CCSc1cc(F)c(OCC(N)=O)c(F)c1)S(=O)(=O)c1ccccc1 [[^11C] K-2, [4-[2-(benzenesulfonyl-[^11C]methyl-amino)-ethylsulfanyl]-2,6-difluorophenoxy]-acetamide] | remarkably washed out | high | – | – | –
CN(C)C(=O)COc1c(F)cc(SCCN(C)S(=O)(=O)c2ccccc2)cc1F [Compound K-4, {4-[2-(benzenesulfonyl-methyl-amino)-ethylsulfanil]-2,6-difluoro-phenoxy}-N,N-dimethyl-acetamide] | – | – | significantly lowers the immobile time instead of K-2 | significantly lowered | indicated binding affinity
